Experimental data published in patent publication US10004730B2, “Small molecules targeting androgen receptor nuclear localization and/or level in prostate cancer” (University of Pittsburgh-Of the Commonwealth System of …, priority 2011, dated 2018).

Legend:
GFP-GR = target: T1, GFP-GR (Homo sapiens, UniProt P04150); assay: GFP-GR nuclear localization in transfected C4-2 cells; format: cell-based; conditions: co-treated with 0.5 μM Dexamethasone, 24 hours
T1 construct: expressed in transfected cells; host or cells: C4-2
Description: FIG. 7. The effect of SID 14730725 and SID 3712502 on nuclear localization of GFP-ER (Top panel) and GFP-GR (Bottom panel) in C4-2 cells. C4-2 cells were transfected with GFP-ER or GFP-GR overnight. The following day the cells were treated with different concentrations (uM) of the small molecules. The cells transfected with GFP-GR were co-treated with 0.5 μM Dexamethasone. Cells were imaged 24 hours after the treatment with the small molecules.

C4-2 cells = assay: Cell survival, crystal violet staining, C4-2; format: cell-based; conditions: 48 hrs
Description: FIGS. 8A and 8B. Effect of SID 14730725 and SID 3712502 on survival of PC3 (FIG. 8A) and C4-2 cells (FIG. 8B). PC3 or C4-2 cells were plated in 12-well plates at 2,500 cell per well in RPMI 1640 complete medium. After 24 hrs, the cells were treated with SID 14730725 or SID 3712502 at the indicated concentrations for 48 hrs. The wells were washed with PBS thrice and fixed in 0.5% crystal Violet in methanol. C=control; treated with vehicle DMSO.

[1] = test system: AR transactivation of PSA-luciferase reporter; assay: PSA-luciferase reporter, full-length AR, C4-2 cells; format: cell-based; conditions: 24 hours
Description: FIGS. 13A-C. Effect of SID 3712502 on the expression of AR and PSA in 22Rv1 (FIG. 13A) cells. […] The cells in RPMI 1640 complete medium were treated with SID 3712502 or vehicle DMSO at the indicated concentrations (uM) for 48 h. The cells were then harvested in RIPA buffer for Western blot analysis using antibodies for AR, PSA, and GAPDH. GAPDH was included as a loading control. FIG. 13B. SID 3712502 inhibits AR transactivation of PSA-luciferase reporter. C4-2 cells were transfected with PSA6.1-Luc, GFP-AR, and pRL-CMV and then treated with indicated doses of SID 3712502 for 24 hours. FIG. 13C. SID 3712502 inhibits transactivation of PSA-luciferase reporter by AR(1-665), which lacks LBD. PC3 cells were transfected with GFP-NAR and PSA6.1 Luc overnight prior to treatment with 10 μM SID 3712502 (SID) or DMSO (C) for 24 hours. For luciferase assays, cells were lysed with passive lysis buffer (Promega) and both Firefly and Renilla luciferase activities were read using a Dual-Luciferase Reporter Assay kit (Promega) on a LmaxII384 luminometer (Molecular Devices). Firefly luciferase values were normalized to Renilla (pRL-CMV) or protein of cell lysates. Plotted values represent averaged normalized Firefly luciferase activities, each performed in triplicate, relative to DMSO control. One-way ANOVA was performed with a Bonferroni's Multiple Comparison posttest *** p<0.0001 (C). […]

LNCaP cells = assay: BrdU incorporation, LNCaP; format: cell-based; conditions: 48 hrs
Description: (§1) FIGS. 14A-F. Effect of SID 3712502 at indicated concentrations on BrdU incorporation in cultured AR-positive LNCaP (FIG. 14A), C4-2 (FIG. 14B), 22Rv1 (FIG. 14C), LAPC4 (FIG. 14D) cells, and AR-negative DU145 (FIG. 14E) and PC3 (FIG. 14F) cells. Cells were plated in 12-well plates at 2,500 cell per well in RPMI 1640 complete medium. After 24 hrs, the cells were treated with SID 3712502 at the indicated concentrations for 48 hrs and BrdU incorporation was assayed according to manufacturer's instructions (Invitrogen BrdU staining kit; catalog #: 93-3943). The percentage of BrdU-positive cells was determined and then normalized to generate relative BrdU index. Ctrl=DMSO control.

DU145 cells = assay: BrdU incorporation, DU145; format: cell-based; conditions: DU145, up to 50 uM, 48 hrs
Description: as §1

[2] = test system: castration resistant 22Rv1 xenograft tumors; assay: 22Rv1 xenograft tumors in castrated SCID mice; format: in vivo; conditions: i.p. 25 mg/kg every other day
Description: (§2) FIGS. 15A-B. SID 3712502 inhibited the growth of castration resistant 22Rv1 xenograft tumors (FIG. 15A), but not PC3 tumors (FIG. 15B). 22Rv1 or PC3 tumors were established by s.c. injection of 1×10^6 cells into young adult male SCID mice. SCID mice were castrated and randomized when tumor volume reached ˜400 uL. Mice received i.p. delivery of SID 3712502 (25 mg/kg body weight) or vehicle control EPL every other day, beginning 4 days after castration (injection indicated by arrows). Each group consisted of 10 mice for 22Rv1, and 8 mice for PC3 tumors. Tumor volumes were measured using micro-calipers and calculated using the formula (length×width^2)/2. Black and red lines represent data from the animals treated with vehicle (C) and SID 3712502 (SID), respectively. P value was calculated using a two-way ANOVA with the Bonferrroni correction (GraphPad). Error bars=SEM. **p<0.01.

PC3 tumors = assay: PC3 xenograft tumors in castrated SCID mice; format: in vivo; conditions: i.p. 25 mg/kg every other day
Description: as §2

[3] = test system: C4-2, LNCaP, LAPC-4, PC3 and COS-1 cell lines; assay: Cytotoxicity in a panel of cultured cell lines; format: cell-based
Description: The screen identified ˜30 candidate small molecules that can disrupt GFP-AR nuclear localization in the C4-2 stably-transfected cell line. They were tested further to verify they can indeed disrupt AR nuclear localization in C4-2 cells and to determine whether the inhibition of nuclear localization of GFP-AR is mediated through a general inhibition of nuclear import machinery. […] Also, the candidate small molecules were tested for their cytotoxicity using a panel of cultured cell lines.
Once the candidate small molecules were identified, they were tested if they indeed can inhibit androgen-independent nuclear localization of GFP-AR and endogenous AR in the C4-2 cells. Also, these agents were tested to see if they are cytotoxic in several different cell lines, including the AR-positive prostate cancer cell lines C4-2, LNCaP, LAPC-4 and AR-negative cell lines PC3 and COS-1 (FIG. 8). These assays led to the identification of 3 agents that specifically target androgen-independent AR nuclear localization in prostate cancer cells and have minimal cytotoxicity on other types of cells.

T1 sequence (P04150 whole entry): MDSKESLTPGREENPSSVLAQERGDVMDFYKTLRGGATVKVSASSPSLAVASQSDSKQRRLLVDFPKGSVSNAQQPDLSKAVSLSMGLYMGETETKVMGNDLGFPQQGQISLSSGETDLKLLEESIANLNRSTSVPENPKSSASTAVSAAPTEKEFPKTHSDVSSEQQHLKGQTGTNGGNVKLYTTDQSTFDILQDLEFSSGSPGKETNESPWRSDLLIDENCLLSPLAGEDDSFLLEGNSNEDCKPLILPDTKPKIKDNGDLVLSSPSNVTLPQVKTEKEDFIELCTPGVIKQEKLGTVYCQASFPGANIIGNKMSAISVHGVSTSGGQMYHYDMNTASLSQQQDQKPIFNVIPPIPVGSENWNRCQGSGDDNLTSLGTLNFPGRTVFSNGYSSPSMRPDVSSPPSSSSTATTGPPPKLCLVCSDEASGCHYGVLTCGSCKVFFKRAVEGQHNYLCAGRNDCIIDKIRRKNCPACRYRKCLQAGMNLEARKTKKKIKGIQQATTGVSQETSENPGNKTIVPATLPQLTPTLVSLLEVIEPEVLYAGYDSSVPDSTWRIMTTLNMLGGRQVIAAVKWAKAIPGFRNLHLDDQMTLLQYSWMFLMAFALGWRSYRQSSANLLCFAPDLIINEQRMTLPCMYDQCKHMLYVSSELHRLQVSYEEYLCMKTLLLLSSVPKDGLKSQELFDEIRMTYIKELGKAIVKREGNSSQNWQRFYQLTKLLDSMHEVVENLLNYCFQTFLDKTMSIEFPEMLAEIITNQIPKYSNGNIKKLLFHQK

For `Cc1cccc(N2CCN(C(=O)CSCc3c(C)noc3C)CC2)c1C` [SID 3712502, 2-[(3,5-dimethyl-1,2-oxazol-4-yl)methylsulfanyl]-1-[4-(2,3-dimethylphenyl)piperazin-1-yl]ethanone], the “localization of GFP-GR” value (GFP-GR) was “no effect”, the cytotoxicity (C4-2 cells) was “little or no cytotoxicity” and the “transactivation activity of full-length AR (PSA-luciferase)” value [1] was “can inhibit the transactivation activity”. The “proliferation (BrdU incorporation)” value (LNCaP cells) was “inhibited the proliferation”, the “proliferation (BrdU incorporation)” value (DU145 cells) was “no detectable effect” and the “growth of 22Rv1 xenograft tumor” value [2] was “significantly inhibited the growth”. The “growth of AR-negative PC3 tumor” value (PC3 tumors) was “did not inhibit” and the “cytotoxicity to various cultured cells” value [3] was “little or no cytotoxicity”.
